Several values for one entry are separate records, joined by “and”; a condition that tells them apart may be missing. Identical values can stand only once.
Experiment: molar heat capacity at saturation pressure

CCCCn1cc[n+](C)c1.Cc1ccc(S(=O)(=O)[O-])cc1 [1-butyl-3-methylimidazolium tosylate]
Settings	molar heat capacity
125.01 K, Crystal 2	211.89 J/K/mol
125.12 K, Metastable crystal	219.77 J/K/mol
125.41 K, Crystal 2	212.45 J/K/mol
126.82 K, Crystal 2	214.18 J/K/mol
126.86 K, Crystal 2	214.18 J/K/mol
126.95 K, Metastable crystal	222.38 J/K/mol
127.27 K, Crystal 2	214.65 J/K/mol
128.68 K, Crystal 2	216.45 J/K/mol
128.72 K, Crystal 2	216.36 J/K/mol
128.79 K, Metastable crystal	224.93 J/K/mol
129.12 K, Crystal 2	216.95 J/K/mol
130.54 K, Crystal 2	218.78 J/K/mol
130.57 K, Crystal 2	218.72 J/K/mol
130.63 K, Metastable crystal	227.59 J/K/mol
130.97 K, Crystal 2	219.24 J/K/mol
132.4 K, Crystal 2	221.01 J/K/mol
132.43 K, Crystal 2	221.01 J/K/mol
132.46 K, Metastable crystal	230.26 J/K/mol
132.83 K, Crystal 2	221.54 J/K/mol
134.26 K, Crystal 2	223.47 J/K/mol
134.29 K, Crystal 2	223.34 J/K/mol
134.3 K, Metastable crystal	232.84 J/K/mol
134.69 K, Crystal 2	223.96 J/K/mol
136.12 K, Crystal 2	225.86 J/K/mol
136.14 K, Metastable crystal	235.54 J/K/mol
136.15 K, Crystal 2	225.83 J/K/mol
136.55 K, Crystal 2	226.35 J/K/mol
137.98 K, Crystal 2	228.34 J/K/mol
137.98 K, Metastable crystal	238.37 J/K/mol
138.01 K, Crystal 2	228.37 J/K/mol
138.41 K, Crystal 2	228.74 J/K/mol
139.81 K, Metastable crystal	241.04 J/K/mol
139.84 K, Crystal 2	230.89 J/K/mol
139.87 K, Crystal 2	230.85 J/K/mol
140.27 K, Crystal 2	231.16 J/K/mol
141.65 K, Metastable crystal	243.74 J/K/mol
141.7 K, Crystal 2	233.49 J/K/mol
141.73 K, Crystal 2	233.37 J/K/mol
142.13 K, Crystal 2	233.8 J/K/mol
143.48 K, Metastable crystal	246.44 J/K/mol
143.56 K, Crystal 2	236.57 J/K/mol
143.59 K, Crystal 2	236.07 J/K/mol
143.98 K, Crystal 2	236.57 J/K/mol
145.31 K, Metastable crystal	249.26 J/K/mol
145.41 K, Crystal 2	240.45 J/K/mol
145.44 K, Crystal 2	238.96 J/K/mol
145.83 K, Crystal 2	239.61 J/K/mol
147.15 K, Metastable crystal	251.93 J/K/mol
147.26 K, Crystal 2	246.19 J/K/mol
147.3 K, Crystal 2	242.18 J/K/mol
147.68 K, Crystal 2	243.36 J/K/mol
148.98 K, Metastable crystal	254.72 J/K/mol
149.09 K, Crystal 2	256.71 J/K/mol
149.15 K, Crystal 2	246.16 J/K/mol
149.52 K, Crystal 2	249.76 J/K/mol
150.8 K, Metastable crystal	257.49 J/K/mol
150.89 K, Crystal 2	272.54 J/K/mol
150.98 K, Crystal 2	254.94 J/K/mol
151.34 K, Crystal 2	267.23 J/K/mol
152.63 K, Metastable crystal	260.28 J/K/mol
152.68 K, Crystal 2	270.46 J/K/mol
152.77 K, Crystal 2	286.32 J/K/mol
153.11 K, Crystal 1	287.72 J/K/mol
154.46 K, Metastable crystal	263.04 J/K/mol
154.51 K, Crystal 1	248.64 J/K/mol
154.55 K, Crystal 1	265.74 J/K/mol
154.91 K, Crystal 1	252.18 J/K/mol
156.28 K, Metastable crystal	265.84 J/K/mol
156.37 K, Crystal 1	244.36 J/K/mol
156.4 K, Crystal 1	246.87 J/K/mol
156.77 K, Crystal 1	244.82 J/K/mol
158.1 K, Metastable crystal	268.6 J/K/mol
158.25 K, Crystal 1	245.1 J/K/mol
158.27 K, Crystal 1	245.66 J/K/mol
158.64 K, Crystal 1	245.51 J/K/mol
159.92 K, Metastable crystal	271.3 J/K/mol
160.13 K, Crystal 1	246.75 J/K/mol
160.14 K, Crystal 1	247 J/K/mol
160.51 K, Crystal 1	247.09 J/K/mol
161.74 K, Metastable crystal	273.94 J/K/mol
162 K, Crystal 1	248.58 J/K/mol
162.02 K, Crystal 1	248.64 J/K/mol
162.38 K, Crystal 1	248.95 J/K/mol
163.55 K, Metastable crystal	276.55 J/K/mol
163.88 K, Crystal 1	250.47 J/K/mol
163.89 K, Crystal 1	250.47 J/K/mol
164.25 K, Crystal 1	250.81 J/K/mol
165.36 K, Metastable crystal	279.12 J/K/mol
165.76 K, Crystal 1	252.37 J/K/mol and 252.4 J/K/mol
166.12 K, Crystal 1	252.83 J/K/mol
167.18 K, Metastable crystal	281.64 J/K/mol
167.63 K, Crystal 1	254.38 J/K/mol
167.64 K, Crystal 1	254.38 J/K/mol
168 K, Crystal 1	254.82 J/K/mol
168.99 K, Metastable crystal	284.12 J/K/mol
169.51 K, Crystal 1	256.4 J/K/mol and 256.43 J/K/mol
169.87 K, Crystal 1	256.8 J/K/mol
170.8 K, Metastable crystal	286.54 J/K/mol
171.38 K, Crystal 1	258.48 J/K/mol
171.39 K, Crystal 1	258.39 J/K/mol
171.74 K, Crystal 1	258.82 J/K/mol
172.6 K, Metastable crystal	288.9 J/K/mol
173.25 K, Crystal 1	260.44 J/K/mol
173.26 K, Crystal 1	260.44 J/K/mol
173.61 K, Crystal 1	260.81 J/K/mol
174.41 K, Metastable crystal	291.14 J/K/mol
175.13 K, Crystal 1	262.42 J/K/mol and 262.45 J/K/mol
175.48 K, Crystal 1	262.89 J/K/mol
176.21 K, Metastable crystal	293.28 J/K/mol
177 K, Crystal 1	264.5 J/K/mol
177.01 K, Crystal 1	264.53 J/K/mol
177.35 K, Crystal 1	264.94 J/K/mol
178.02 K, Metastable crystal	295.36 J/K/mol
178.87 K, Crystal 1	266.49 J/K/mol and 266.55 J/K/mol
179.21 K, Crystal 1	266.96 J/K/mol
179.82 K, Metastable crystal	297.28 J/K/mol
180.74 K, Crystal 1	268.51 J/K/mol and 268.63 J/K/mol
181.08 K, Crystal 1	268.91 J/K/mol
181.62 K, Metastable crystal	299.18 J/K/mol
182.6 K, Crystal 1	270.65 J/K/mol
182.94 K, Crystal 1	270.99 J/K/mol
183.43 K, Metastable crystal	301.07 J/K/mol
184.47 K, Crystal 1	272.64 J/K/mol
184.8 K, Crystal 1	273.01 J/K/mol
185.23 K, Metastable crystal	302.81 J/K/mol
186.33 K, Crystal 1	274.72 J/K/mol
186.66 K, Crystal 1	275.06 J/K/mol
187.02 K, Metastable crystal	304.48 J/K/mol
188.19 K, Crystal 1	276.76 J/K/mol
188.51 K, Crystal 1	277.07 J/K/mol
188.82 K, Metastable crystal	306.1 J/K/mol
190.05 K, Crystal 1	278.78 J/K/mol and 278.81 J/K/mol
190.37 K, Crystal 1	279.22 J/K/mol
190.62 K, Metastable crystal	307.62 J/K/mol
191.9 K, Crystal 1	280.86 J/K/mol
191.91 K, Crystal 1	280.89 J/K/mol
192.22 K, Crystal 1	281.33 J/K/mol
192.42 K, Metastable crystal	309.11 J/K/mol
193.75 K, Crystal 1	282.97 J/K/mol
193.77 K, Crystal 1	283 J/K/mol
194.07 K, Crystal 1	283.44 J/K/mol
194.22 K, Metastable crystal	310.72 J/K/mol
195.6 K, Crystal 1	285.05 J/K/mol
195.62 K, Crystal 1	285.05 J/K/mol
195.92 K, Crystal 1	285.39 J/K/mol
196.01 K, Metastable crystal	311.96 J/K/mol
197.45 K, Crystal 1	286.95 J/K/mol
197.47 K, Crystal 1	287.13 J/K/mol
197.77 K, Crystal 1	287.47 J/K/mol
197.81 K, Metastable crystal	313.21 J/K/mol
199.3 K, Crystal 1	289.24 J/K/mol
199.32 K, Crystal 1	289.18 J/K/mol
199.61 K, Crystal 1	289.43 J/K/mol
199.61 K, Metastable crystal	314.45 J/K/mol
201.21 K, Crystal 1	291.45 J/K/mol
201.24 K, Crystal 1	291.48 J/K/mol
201.47 K, Metastable crystal	316.31 J/K/mol
201.52 K, Crystal 1	291.79 J/K/mol
203.18 K, Crystal 1	293.59 J/K/mol
203.21 K, Crystal 1	293.87 J/K/mol
203.39 K, Metastable crystal	317.86 J/K/mol
203.49 K, Crystal 1	293.96 J/K/mol
205.15 K, Crystal 1	295.85 J/K/mol
205.18 K, Crystal 1	296.01 J/K/mol

From the NIST ThermoML archive (doi:10.1021/je700152c)
